A short description of data set [1]: Dynamic surface tension (SITA science line t60 bubble pressure). Conditions: for dynamic surface tension: 100 ppm Bardac […] + sulfate based anionic surfactant at mole:mole ratio, FIGS. 4A-4C.
Protocol: The SITA science line t60 measures the dynamic surface tension of liquids up to the semi-static range. Air bubbles are generated from a capillary with known radius. The bubble pressure is measured as a function of bubble life time, which can be correlated to the surface tension according to the Young-Laplace equation.
The SITA science line t60 was calibrated with DI water. Clean water samples after calibration should have a surface tension of 72.0 ±1.0 mN/m (depending on the quality and temperature). Following calibration, the SITA was programmed to take readings at the desired time intervals (i.e., 0.3, 1.6, 3.0, 9.1 seconds). In order to determine the effects on the surface activity of a 9:1 mass ratio of quaternary ammonium compound with an anionic surfactant the following compositions were prepared.
10-15 mL were transferred into 20 mL vials and immersed in a heated oil bath to 72° C. (160° F.)±2° C. The samples were equilibrated for 10-15 minutes. The samples were individually removed from the oil bath and tested in the SITA. After each sample was tested the SITA's cleaning procedure was run, then the surface tension of DI water was checked to ensure the SITA was adequately clean. If the DI water measurements were not within 72.0±1.0 mN/m, then the cleaning procedure was run again.
The SITA science line t60 was calibrated with DI water. Clean water samples after calibration should have a surface tension of 72.0±1.0 mN/m (depending on the quality and temperature). Following calibration, the SITA was programmed to take readings at the desired time intervals (i.e., 0.3, 1.6, 3.0, 9.1 seconds). In order to determine the effects on the dynamic surface tension of Bardac LF80 and varying concentrations of Acusol 445 the following five solutions were analyzed at pH 7.0; 100 ppm Bardac LF80; 10 ppm Acusol 445; 100 ppm Bardac LF80+10 ppm Acusol 445; 100 ppm Bardac LF80+30 ppm Acusol 445; and 100 ppm Bardac LF80+75 ppm Acusol 445.
For a further data set, the system named is bacteria. Description: Antimicrobial efficacy at pH 8.0, 7.5 to 1 mass ratio (FIG. 6B). The class given is cell-based. The conditions noted are these: 7.5/1 mass ratio; for log reduction of bacteria: 300 ppm Bardac […] + anionic surfactant; for antimicrobial efficacy: 150 ppm Bardac […] + anionic surfactant. The protocol:
Further examination of the antimicrobial efficacy of a quaternary ammonium compound in association with an anionic surfactant at pH 8.0 was performed as described above.

Another data set concerns Staphylococcus. Description: Antimicrobial suspension test of quat-anionic surfactant compositions (Examples 6, 8). The data set is classed as cell-based, Staphylococcus aureus. Conditions: for antimicrobial efficacy against Staphylococcus: FIG. 6A; for kill properties on Staphylococcus: 300, 150 and 75 ppm active Bardac […] + anionic surfactant, 7.5:1 mass ratio, pH 8, FIG. 8.

In a further data set the test system is Escherichia coli. Description: Antimicrobial suspension test of quat-anionic surfactant compositions (Examples 6-7). The class given is cell-based. The conditions noted are these: for antimicrobial efficacy against E. coli (log reduction of bacteria): 300 ppm Bardac […] + anionic surfactant, mole:mole ratio, pH 8, FIG. 7; for log reduction of bacteria for E. coli: 300 ppm active Bardac […] + anionic surfactant, 7.5/1 mass ratio, FIG. 6A.

Another data set has as its system E. coli. Description: Third sink sanitizer (Example 12). The data set is classed as cell-based, Escherichia coli. The conditions noted are these: 500 ppm water hardness, neutral pH versus pH 4.5. The protocol:
The antimicrobial efficacy of quaternary ammonium compounds and anionic surfactants for use as a third sink sanitizer were evaluated as shown in Table 10.

Setting [2] is: 100 ppm Bardac […] + anionic carboxylate surfactant at mole:mole ratio, FIG. 3A.
The mark [3] stands for this setting: 300 ppm active Bardac […] + anionic surfactant, 7.5/1 mass ratio.
The mark [4] stands for this setting: Bardac […] + anionic sulfate surfactant at mole:mole ratio, FIG. 2.
Setting [5] is: 300 ppm Bardac […] + anionic surfactant, mole:mole ratio.

Consider `CCCCCCCC/C=C\CCCCCCCC(=O)O` [Oleic acid], for which the “dynamic surface activity (surface tension versus bubble life time)” value in data set [1] (setting [2]) is given as “capable of increasing the surface activity, to variable extents, compared to Bardac 205M alone”.

Take `CCCCCCCCCCCCOS(=O)(=O)[O-].[Na+]` [SLS, sodium lauryl sulfate]: the “log reduction of bacteria” value with bacteria was “highest log reduction of bacteria”. Further, the “antimicrobial efficacy against Staphylococcus” value in the data set on Staphylococcus (setting [3]) was “good antimicrobial efficacy against Staphylococcus”. Also, in the data set with Escherichia coli, the “antimicrobial efficacy against E. coli (log reduction of bacteria)” value is on record as “reduce the antimicrobial activity of the quaternary ammonium compound” and the “log reduction of bacteria for E. coli” value is listed as “highest log reduction of bacteria for E. coli”. Besides, the dynamic surface tension entry in data set [1] is recorded as “reduced dynamic surface tension, as compared to either the quaternary ammonium compound or the anionic surfactant alone”. Further, the “dynamic surface activity (surface tension versus bubble life time)” value in data set [1] (setting [4]) was “overall increase in surface activity compared to Bardac 205M alone, but displayed slower dynamics”.

On to `CCCCCCCCS(=O)(=O)[O-].[Na+]` [NAS-FAL, sodium n-octanesulfonate], for which the “log reduction of bacteria” value in the data set with bacteria is on record as “highest log reduction of bacteria”. The “antimicrobial efficacy against Staphylococcus” value in the data set with Staphylococcus (setting [5]) is given as “good antimicrobial efficacy against Staphylococcus”. Also, in the data set with Escherichia coli, the “antimicrobial efficacy against E. coli (log reduction of bacteria)” value was “reduce the antimicrobial activity of the quaternary ammonium compound”. In data set [1], the dynamic surface tension entry is given as “synergistic trend in regards to reduced surface tension”. In addition, the “dynamic surface activity (surface tension versus bubble life time)” value in data set [1] (setting [4]) is “rapid increase in surface activity”.

Turning to `CC(C(=O)[O-])N(CC(=O)[O-])CC(=O)[O-].[Na+].[Na+].[Na+]` (centres unmarked) [Trilon M, methyl glycine diacetic acid (MGDA)], in data set [1] (100 ppm Bardac LF80 + 100 ppm Trilon M at pH 3.0, 9.0, 11.0, FIG. 21), the “dynamic surface activity, effect of pH” value is “independent of pH”.

Turning to `CCCCCCCCCCCC(=O)O` [lauric acid], the “dynamic surface activity (surface tension versus bubble life time)” value in data set [1] (setting [2]) was “capable of increasing the surface activity, to variable extents, compared to Bardac 205M alone”.

Consider `CCCCC(CC)COS(=O)(=O)[O-].[Na+]` (centres unmarked) [EH-S, Sodium 2-ethyl hexyl sulfate], for which the “log reduction of bacteria” value in the data set with bacteria was “highest log reduction of bacteria”. The “kill properties on Staphylococcus” value in the data set on Staphylococcus is recorded as “excellent kill properties on Staphylococcus”. Besides, the “antimicrobial efficacy against Staphylococcus” value with Staphylococcus (setting [5]) is listed as “good antimicrobial efficacy against Staphylococcus”. In addition, in the data set on Escherichia coli, the “antimicrobial efficacy against E. coli (log reduction of bacteria)” value was “reduce the antimicrobial activity of the quaternary ammonium compound” and the “log reduction of bacteria for E. coli” value is recorded as “highest log reduction of bacteria for E. coli”. Besides, the dynamic surface tension entry in data set [1] is given as “synergistic reduction of surface tension”. In data set [1] (setting [4]), the “dynamic surface activity (surface tension versus bubble life time)” value is recorded as “rapid increase in surface activity”.

On to sodium lauryl ether sulfate [SLES], for which, in the data set on bacteria, the antimicrobial efficacy result is given as “good antimicrobial efficacy” and the “log reduction of bacteria” value is recorded as “highest log reduction of bacteria”. Moreover, in the data set on Staphylococcus (setting [3]), the “antimicrobial efficacy against Staphylococcus” value was “good antimicrobial efficacy against Staphylococcus”. Further, in the data set on Escherichia coli, the “antimicrobial efficacy against E. coli (log reduction of bacteria)” value is “reduce the antimicrobial activity of the quaternary ammonium compound” and the “log reduction of bacteria for E. coli” value is “highest log reduction of bacteria for E. coli”. Further, the “dynamic surface activity (surface tension versus bubble life time)” value in data set [1] (100 ppm Bardac […] + surfactant at 9:1 mass ratio, 160° F., FIG. 1) is “do not display the synergistic boost in surface activity”. The “dynamic surface activity (surface tension versus bubble life time)” value in data set [1] (setting [4]) is “overall increase in surface activity compared to Bardac 205M alone, but displayed slower dynamics”.

For `CCCCCCCC(=O)O` [octanoic acid], in the data set with bacteria, the antimicrobial efficacy result is reported as “good antimicrobial efficacy” and the “log reduction of bacteria” value is recorded as “highest log reduction of bacteria”. Moreover, in the data set with Staphylococcus, the “kill properties on Staphylococcus” value is on record as “excellent kill properties on Staphylococcus”. Further, the “antimicrobial efficacy against E. coli (log reduction of bacteria)” value in the data set with Escherichia coli is given as “highest log reduction of bacteria”. Besides, the “dynamic surface activity (surface tension versus bubble life time)” value in data set [1] (setting [2]) is “capable of increasing the surface activity, to variable extents, compared to Bardac 205M alone”.

Take `CCCCC(CC)C(=O)O` (centres unmarked) [ethylhexoic acid]: in the data set on bacteria, the antimicrobial efficacy result is on record as “good antimicrobial efficacy” and the “log reduction of bacteria” value is on record as “highest log reduction of bacteria”. Also, the “kill properties on Staphylococcus” value with Staphylococcus was “excellent kill properties on Staphylococcus”. Further, the “antimicrobial efficacy against E. coli (log reduction of bacteria)” value with Escherichia coli is “highest log reduction of bacteria”. For the same molecule, the “dynamic surface activity (surface tension versus bubble life time)” value in data set [1] (setting [2]) was “capable of increasing the surface activity, to variable extents, compared to Bardac 205M alone”.

In the case of `CC(O)(P(=O)(O)O)P(=O)(O)O` [HEDP, 1-hydroxy ethylidene-1,1-diphosphonic acid], in data set [1] (100 ppm Bardac LF80 + 10-75 ppm HEDP, pH 7.0, FIG. 18), the dynamic surface activity entry is recorded as “increase in dynamic surface activity of Bardac LF80 in combination with HEDP”.

Regarding `CCCCCCCCCC(=O)O` [decanoic acid], in the data set with bacteria, the antimicrobial efficacy entry was “good antimicrobial efficacy” and the “log reduction of bacteria” value is on record as “highest log reduction of bacteria”. Besides, the “kill properties on Staphylococcus” value in the data set on Staphylococcus is on record as “excellent kill properties on Staphylococcus”. For the same molecule, the “effect on the antimicrobial efficacy of the quat” value in the data set on E. coli is ““synergizes” the quat”. In addition, the “effect on the antimicrobial efficacy of the quat” value in the data set with E. coli (listed as decanoate) is on record as ““deactivates” quat”. For the same molecule, the “antimicrobial efficacy against E. coli (log reduction of bacteria)” value in the data set on Escherichia coli was “reduce the antimicrobial activity of the quaternary ammonium compound”. Further, the “dynamic surface tension, effect of pH” value in data set [1] (100 ppm Bardac […] + 56 ppm decanoic acid mole:mole, pH 3.6-10.2, FIG. 5B) was “independent of pH”. For the same molecule, the “dynamic surface activity (surface tension versus bubble life time)” value in data set [1] (100 ppm Bardac […] alone, 100 ppm Decanoate alone, or 100 ppm Bardac […] + 10-70 ppm Decanoic acid, FIG. 3B) is “limited surface activity”.

(Values after US10426162B2, “Interaction between antimicrobial quaternary compounds and anionic surfactants” (Ecolab USA Inc., priority 2016, dated 2019).)
